What follows are compounds tested against Syk (h) (Homo sapiens, UniProt P43405) (assay: Syk kinase inhibition assay (33P-ATP filter binding)). Details: not given.
Assay type: biochemical
Procedure: In a final reaction volume of 25 μl, Syk (h) (5-10 mU) is incubated with 50 mM Tris pH 7.5, […], 0.1 mM Na3VO4, 0.1% β-mercaptoethanol, 0.1 mg/mL poly (Glu, Tyr) 4:1, 10 μM test agent, 10 mM MgAcetate and [γ-^33P-ATP] (specific activity approximately 500 cpm/pmol, concentration as required). The reaction is initiated by the addition of the MgATP mix. After incubation for 40 minutes at room temperature, the reaction is stopped by the addition of 5 μl of a 3% phosphoric acid solution. 10 μl of the reaction is then spotted onto a Filtermat A and washed three times for 5 minutes in 75 mM phosphoric acid and once in methanol prior to drying and scintillation counting. Percent inhibition was calculated using the following formula: % Control=((sample-mean no enzyme)/(mean plus enzyme−mean no enzyme))×100.

SMILES	inhibition at 10 µM [%]
CCCC/C=C/c1cnc2ccc(NCCN(C)C)nn12	27

Same assay, conditions: 10 μM test agent; 40 minutes at room temperature; substrate poly (Glu, Tyr) 4:1; read-out: % inhibition

SMILES	inhibition at 10 µM [%]
CCCNc1ccc2ncc(-c3ccsc3)n2n1	23
c1n[nH]cc1-c1cnc2ccc(NC3CCOCC3)nn12	42
CN1CCN(c2ccc(CNc3ccc4ncc(-c5cccc(OC(F)(F)F)c5)n4n3)cc2)CC1	33
COc1ccccc1-c1cnc2ccc(NCc3ccccn3)nn12	81
COc1cc(CNc2ccc3ncc(-c4ccc(Oc5ccccc5)cc4)n3n2)cc(OC)c1OC	24
c1csc(-c2cnc3ccc(NCC4CC4)nn23)c1	26
CCCNc1ccc2ncc(-c3cc(C)cs3)n2n1	38
COc1ccc(-c2cnc3ccc(NCc4ccccn4)nn23)cc1	77

Reference: patent US7906512B2, “3,6-substituted imidazol[1,2-b]pyridazine analogs for treating allergic and inflammatory diseases” (Alcon, Inc., priority 2005, dated 2011)
